Molecular target: human orexin type 2 receptor (hOX2R) (Homo sapiens (Human), UniProt O43614)
Test: Measurement of orexin type 2 receptor agonist activity (Experimental Example 2-1, FLIPR intracellular Ca2+)
Format: cell-based
Description: To obtain a cell clone stably expressing human orexin type 2 receptor, human orexin type 2 receptor cDNA was inserted into pcDNA3.1(+) plasmid vector (Invitrogen), and a plasmid DNA for expression of human orexin type 2 receptor (pcDNA3.1(+)/hOX2R) was cloned. The plasmid DNA was introduced into CHO-dhfr cell by an electroporation method, and human orexin type 2 receptor expressing clone cells were obtained by limiting dilution method by using G418 drug resistance as a selection marker.
Chinese hamster ovary (CHO) dhfr-cells forcibly expressing human orexin type 2 receptor (hOX2R) were seeded in each well of Black clear bottom plate (384 wells) (Becton, Dickinson and Company) by 10,000 cells, and cultured for 16 hr in an MEM-alpha (Nikken-Bio Co., Ltd.) medium containing 100 U/ml penicillin, 100 μg/ml streptomycin, […] G418 (all above Invitrogen), and 10% fetal calf serum (Thermo), under the conditions of 37° C., 5% CO2. […] A test compound was dissolved in dimethyl sulfoxide to 10 mM, and then diluted with assay buffer 2 (20 mM HEPES, Hanks' balanced salt solution (Invitrogen), 0.1% bovine serum albumin). For the reaction, a test compound solution (10 μL) was added using Fluorescent Imaging Plate Reader TETRA (FLIPR TETRA; manufactured by Molecular Devices), a fluorescence value (excitation wavelength 488 nm, measurement wavelength 570 nm) of each well was measured every one second for 1 min, and the agonist activity was determined using the area of the fluorescence value as an indicator of intracellular Ca^2+ concentration.

[1] = CHO dhfr- cells expressing hOX2R, FLIPR TETRA Ca2+ fluorescence (Exp. Ex. 2-1)

Sequence of human orexin type 2 receptor (hOX2R) (O43614 whole entry): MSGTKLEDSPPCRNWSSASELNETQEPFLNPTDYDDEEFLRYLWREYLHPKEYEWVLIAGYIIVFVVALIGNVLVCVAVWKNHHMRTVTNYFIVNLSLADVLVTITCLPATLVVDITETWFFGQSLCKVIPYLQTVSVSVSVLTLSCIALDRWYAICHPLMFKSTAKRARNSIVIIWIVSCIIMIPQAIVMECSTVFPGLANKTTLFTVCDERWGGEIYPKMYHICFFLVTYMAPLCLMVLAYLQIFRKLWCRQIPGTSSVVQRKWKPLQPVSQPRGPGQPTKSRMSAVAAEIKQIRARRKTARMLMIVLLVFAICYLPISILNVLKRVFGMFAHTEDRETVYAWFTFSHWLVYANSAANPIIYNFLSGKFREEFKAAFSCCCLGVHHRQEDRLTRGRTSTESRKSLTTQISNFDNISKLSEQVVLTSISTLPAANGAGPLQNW

Row | Emax at 30 µM (value at 30 uM concentration, orexin B as full agonist = 100%) [%] | EC50 [1] [nM] | Compound | Emax (%) [1] [%]
1 | 98 | – | COc1ccccc1[C@H]1CC[C@@H](OC[C@H]2[C@@H](NS(C)(=O)=O)CCCN2C(=O)C2CC2)CC1 [Example 28, N-((2R,3S)-1-(cyclopropylcarbonyl)-2-(((cis-4-(2-methoxyphenyl)cyclohexyl)oxy)methyl)piperidin-3-yl)methanesulfonamide] | –
2 | – | 15 | CCOC(=O)N1CCC[C@H](NS(C)(=O)=O)[C@@H]1CO[C@H]1CC[C@@H](c2ccccc2)CC1 [Example 303, ethyl (2R,3S)-3-((methylsulfonyl)amino)-2-(((cis-4-phenylcyclohexyl)oxy)methyl)-piperidine-1-carboxylate] | –
3 | – | 23 | COc1cccc([C@H]2CC[C@@H](OC[C@H]3[C@@H](NS(C)(=O)=O)CCCN3C(=O)C3CC3)CC2)c1 [Example 304, N-((2R,3S)-1-(cyclopropylcarbonyl)-2-(((cis-4-(3-methoxyphenyl)cyclohexyl)oxy)-methyl)piperidin-3-yl) methanesulfonamide] | –

Row | Compound | Emax at 30 µM (value at 30 uM concentration, orexin B as full agonist = 100%) [%] | EC50 [1] [nM] | Emax (%) [1] [%]
4 | cis-N-ethyl-3- ((methylsulfonyl)amino)-2- (((cis-2-phenyl-1,3-dioxan- 5-yl)oxy)methyl) piperidine-1-carboxamide [Example 140] | – | 390 | 92

— patent publication US11292766B2, “Substituted piperidine compound and use thereof” (Takeda Pharmaceutical Company Limited, priority 2016, dated 2022)
